Laboratory results: patent US20230226092A1, “CANCER […] ON G[…]” (NuCana plc, priority 2015, published 2023)

Tested on: advance progressive cancers that are refractory to, or have relapsed on, all conventional therapies
Assay: ProGem1 dose escalation clinical study: clinical response (RECIST 1.1, tumour markers)
Assay type: in vivo, human
Parameters: CA125 level / CA19.9 / CEA / CA125 / Tumour volume / CA 15.3 tumour marker / inhibin B: unit not given here
Excerpt: The following data were generated in clinical studies of NUC-1031 in human patients with advance progressive cancers that are refractory to, or have relapsed on, all conventional therapies that have been used to date. The results clearly illustrate the ability of NUC-1031 to successfully treat refractory cancers.
Although the primary objectives of the dose escalation part of the study were to determine the Recommended Phase II Dose (RP2D) and safety profile, secondary objectives included determining the PK profile, however effective treatment of patients with a range of refractory cancers has also been observed as part of this study.
A total of 68 patients have been entered into this dose escalation study, of which 49 were evaluable for clinical response in that they have received at least 2 Cycles of NUC-1031 and were therefore eligible for a RECIST 1.1 assessment.
NUC-1031 was administered as a 5 to 30 minute intravenous slow bolus injection. • Schedule A: NUC-1031 was administered on days 1, 8, 15 of a 4 weekly Cycle. • Schedule B: NUC-1031 was administered on days 1, 5, 8, 12, 15, 19, of a 4 weekly Cycle.
Evaluable patients were patients that received ≥ 2 Cycles of NUC-1031 and were therefore eligible for a RECIST 1.1 assessment at the end of Cycle 2. Where the disease response duration, measured in months, is followed by a “+” this indicates ongoing disease control as of the latest cut-off date.

[1] = Patient 004, breast cancer, 500 mg/m^2 weekly
[2] = Patient 005, ovarian cancer, 500 mg/m^2 weekly
[3] = Patient 006, cholangiocarcinoma, 375 mg/m^2 twice weekly, then 500 mg/m^2 weekly
[4] = Patient 008, cancer of unknown primary, 375 mg/m^2 twice weekly
[5] = Patient 010, endometrial cancer
[6] = Patient 015, cancer of unknown primary, ongoing
[7] = Patient 021, fallopian tube cancer
[8] = Patient 025, mesothelioma, 725 mg/m^2 weekly
[9] = Patient 026, colorectal cancer, 725 mg/m^2 weekly
[10] = Patient 029, breast cancer, 725 mg/m^2 weekly
[11] = Patient 030, ovarian cancer, 725 mg/m^2 weekly
[12] = Patient 032, oesophageal cancer, 750 mg/m^2 weekly
[13] = Patient 033, cholangiocarcinoma, 750 mg/m^2 weekly

With “gemcitabine-[phenyl-benzoxy-L-alaninyl)]-phosphate [NUC-1031]” the Disease response duration [1] was 12 months, the “Response to RECIST” value [1] was “Stable Disease” and the “Remained stable with no further treatment” value (Patient 004, breast cancer, after Cycle 7) was 5 months. The Disease response duration [2] was 15 months, the “Response to RECIST” value [2] was “Stable Disease” and the “Time to relapse after stopping treatment” value (Patient 005, ovarian cancer, after 12 months of treatment) was 3 months. For the same substance, the CA125 level (Patient 005, ovarian cancer, end of Cycle 6, from 208 at start of study) was 140, the CT scan finding (Patient 006, cholangiocarcinoma) was “reduction in metastatic lung lesion and lymph node from baseline” and the Disease response duration [3] was 3 months. The “Response to RECIST” value [3] was “Stable Disease”, the CA19.9 (Patient 006, cholangiocarcinoma, after two doses, from 125,002) was 59,285 and the Disease response duration (Patient 007, colorectal cancer) was 3 months. The “Response to RECIST” value (Patient 007, colorectal cancer, 375 mg/m^2 twice weekly, then 500 mg/m^2 weekly) was “Stable Disease”, the CEA (Patient 007, colorectal cancer, from 361) was 286 and the CA19.9 (Patient 007, colorectal cancer, from 3,151) was 2,957. For the same substance, the Disease response duration [4] was 3 months, the “Response to RECIST” value [4] was “Stable Disease” and the Symptomatic benefit (Patient 008, cancer of unknown primary, Cycle 1) was “symptomatic relief on treatment and a general improvement in mood and wellbeing”. For the same substance, the Disease response duration [5] was 9 months, the “Stable Disease maintained after stopping NUC-1031” value [5] was 3 months and the “Response to RECIST” value (Patient 010, endometrial cancer, 750 mg/m^2 weekly, then 500 mg/m^2) was “Stable Disease”. The CA125 (Patient 010, endometrial cancer, from 727) was 488, the Disease response duration (Patient 011, uterine carcinosarcoma) was 4 months and the “Reduction in tumour volume” value (Patient 011, uterine carcinosarcoma, 375 mg/m^2 twice weekly) was 26%. For the same substance, the “Response to RECIST” value (Patient 011, uterine carcinosarcoma, 375 mg/m^2 twice weekly, then 625 mg/m^2 weekly) was “Stable Disease”, the Disease response duration (Patient 012, cholangiocarcinoma) was 8 months and the “Response to RECIST” value (Patient 012, cholangiocarcinoma, 375 mg/m^2 twice weekly, then 625 mg/m^2 weekly) was “Stable Disease”. The Disease response duration (Patient 013, cervical cancer) was 9 months, the PFS (Patient 013, cervical cancer) was 11 months and the “Response to RECIST” value (Patient 013, cervical cancer, 750, then 625, then 500 mg/m^2 weekly) was “Partial Response”. For the same substance, the Symptomatic benefit (Patient 013, cervical cancer, lower pelvic pain) was “relief of this pain on treatment, with significant reduction of opioid usage”, the “Response to RECIST” value (Patient 014, mesothelioma, 750, then 625 mg/m^2 weekly) was “Progressive Disease” and the “Response to RECIST” value (Patient 015, cancer of unknown primary, 750, then 625, then 500 mg/m^2 weekly) was “Partial Response”. The “Reduction in tumour size” value (Patient 015, cancer of unknown primary, CT scan 9th January 2015) was roughly 58%, the Symptomatic benefit (Patient 015, cancer of unknown primary, following Cycle 1) was “the oedema and ascites had gone” and the Disease response duration [6] was no less than 20 months. The PFS [6] was no less than 24 months, the Disease response duration (Patient 017, lung cancer) was 3 months and the PFS (Patient 017, lung cancer) was 10 months. For the same substance, the Symptomatic benefit (Patient 017, lung cancer) was “improvement in hoarse voice and dysphagia”, the “Response to RECIST” value (Patient 017, lung cancer (adenocarcinoma), 750, then 625 mg/m^2 weekly) was “Partial Response” and the “Response to RECIST” value (Patient 018, lung cancer (squamous cell), 625 mg/m^2 weekly) was “Stable Disease”. The Disease response duration (Patient 018, lung cancer, 625 mg/m^2 weekly) was 4 months, the “Response duration according to GCIG criteria” value [7] was 9 months and the “Response duration according to RECIST” value [7] was 3 months. The Symptomatic benefit [7] was “significant reduction in abdominal ascites”, the Best overall response (Patient 021, fallopian tube cancer, 625 mg/m^2 weekly) was “Partial Response” and the “CA125 reduction from baseline” value (Patient 021, fallopian tube cancer, end of Cycle 6) was 91%. The CA125 (Patient 021, fallopian tube cancer, end of Cycle 6, baseline 372) was 35, the “Response to RECIST” value (Patient 024, cancer of unknown primary, 675 mg/m^2 weekly) was “Progressive Disease” and the Disease response duration [8] was 4 months. The “Response to RECIST” value [8] was “Stable Disease”, the Symptomatic benefit (Patient 026, colorectal cancer) was “Significant improvement in pain, with dramatic reduction in use of opioid analgesia” and the Disease response duration [9] was 4 months. For the same substance, the “Response to RECIST” value [9] was “Stable Disease”, the Disease response duration (Patient 027, ovarian cancer) was 8 months and the “Reduction in tumour volume” value (Patient 027, ovarian cancer) was 23%. The “Response to RECIST” value (Patient 027, ovarian cancer, 725, then 675, then 625 mg/m^2 weekly) was “Stable Disease”, the CA125 (Patient 027, ovarian cancer, end of Cycle 6, from 188 at baseline) was 99 and the Disease response duration [10] was 4 months. For the same substance, the “Response to RECIST” value [10] was “Stable Disease”, the Disease response duration [11] was 3 months and the “Response to RECIST” value [11] was “Stable Disease”. The “Response (end of Cycle 2 CT scan)” value (Patient 031, cholangiocarcinoma, 750 mg/m^2 weekly) was “Progressive Disease”, the Disease response duration [12] was 2 months and the “Response to RECIST” value [12] was “Stable Disease”. The Disease response duration [13] was 3 months, the “Response to RECIST” value [13] was “Stable Disease” and the Disease response duration (Patient 036, renal carcinoma) was 5 months. The “Response to RECIST” value (Patient 036, renal carcinoma, 825, then 750 mg/m^2 weekly) was “Stable Disease”, the “Reduction in tumour volume” value (Patient 036, renal carcinoma, end of Cycle 4 CT scan) was 7% and the Disease response duration (Patient 037, pancreatic cancer) was 1 month. For the same substance, the PFS (Patient 037, pancreatic cancer) was 4 months, the Symptomatic benefit (Patient 037, pancreatic cancer) was “Pain in abdomen and back had significantly improved” and the “Response to RECIST” value (Patient 037, pancreatic cancer, 1,000, then 900 mg/m^2 weekly) was “Partial Response”.
